Values of other authors, collected in patent US8338346B2, “Perfume compositions comprising functional perfume components” (The Procter & Gamble Company, priority 2008, dated 2012).

Experiments:
[1] = odor detection threshold; approximate reported values
[2] = approximate reported values; unit inferred

SMILES	ODT [1]	Vapor pressure [2]
C=C(C)C1CC=C(C)CC1 [D-Limonene, 1-methyl-4-isopropenyl-1-cyclohexene]	204 ppb	–
CC(=O)OCCCCCCC(C)C [Iso-Nonyl Acetate, iso-nonyl acetate]	12 ppb	0.11 mmHg
C=CC(C)(O)CCC=C(C)C (centres unmarked) [Linalool, 3-hydroxy-3,7-dimethyl-1,6 octadiene]	22 ppb	0.05 mmHg
